The supplement of paper PMC8149375
Values belong to the compound of their own block, whether it stands above or below them.

Columns and labels:
Details in all cases: treatment: drug + dasatinib (fixed dose, not stated); 5 days
UO-31 [1] = assay: AUC of dose-response viability curve, drug + dasatinib, normalised to DMSO (arbitrary (AUC of normalised viability)); higher = less growth inhibition
Method: (§1)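 Primary HTS combination arm: 8 RCC cell lines treated with 8 doses (up to 10 uM) of each library drug plus a fixed dose of dasatinib (dose not stated) for 5 days; viability read by CellTiter-Glo and normalised to DMSO. GI50 was fitted with XLfit, AUC is the area under the dose-response curve, and minimum viability is the lowest fraction of DMSO viability across doses.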

ACHN [2] = assay: as above
Method: as §1

769-P [3] = assay: as above
Method: as §1

786-O [4] = assay: as above
Method: as §1

SN12C [5] = assay: as above
Method: as §1

TK-10 [6] = assay: as above
Method: as §1

A498 [7] = assay: as above
Method: as §1

CAKI-1 [8] = assay: as above
Method: as §1

UO-31 [9] = assay: minimum viability across doses, drug + dasatinib, relative to DMSO (fraction); higher = less growth inhibition
Method: as §1

ACHN [10] = assay: as above
Method: as §1

769-P [11] = assay: as above
Method: as §1

786-O [12] = assay: as above
Method: as §1

SN12C [13] = assay: as above
Method: as §1

TK-10 [14] = assay: as above
Method: as §1

A498 [15] = assay: as above
Method: as §1

CAKI-1 [16] = assay: as above
Method: as §1

UO-31 [17] = assay: GI50 of drug in presence of dasatinib; higher = less potent
Method: as §1

ACHN [18] = assay: as above
Method: as §1

769-P [19] = assay: as above
Method: as §1

786-O [20] = assay: as above
Method: as §1

SN12C [21] = assay: as above
Method: as §1

TK-10 [22] = assay: as above
Method: as §1

A498 [23] = assay: as above
Method: as §1

CAKI-1 [24] = assay: as above
Method: as §1

SMILES: CCN1CCN(c2ccc(Nc3cc(N(C)C(=O)Nc4c(Cl)c(OC)cc(OC)c4Cl)ncn3)cc2)CC1 [BGJ398 (NVP-BGJ398)] + Cc1nc(Nc2ncc(C(=O)Nc3c(C)cccc3Cl)s2)cc(N2CCN(CCO)CC2)n1 [dasatinib]
AUC of dose-response viability curve (UO-31 [1]): 2.64
AUC of dose-response viability curve (ACHN [2]): 1.29
AUC of dose-response viability curve (769-P [3]): 2.3
AUC of dose-response viability curve (786-O [4]): 1.97
AUC of dose-response viability curve (SN12C [5]): 1.66
AUC of dose-response viability curve (TK-10 [6]): 2.18
AUC of dose-response viability curve (A498 [7]): 2.87
AUC of dose-response viability curve (CAKI-1 [8]): 1.15
minimum viability across doses (UO-31 [9]): 0.00819
minimum viability across doses (ACHN [10]): 0.0494
minimum viability across doses (769-P [11]): 0.234
minimum viability across doses (786-O [12]): 0.249
minimum viability across doses (SN12C [13]): 0.0804
minimum viability across doses (TK-10 [14]): 0.221
minimum viability across doses (A498 [15]): 0.435
minimum viability across doses (CAKI-1 [16]): 0.0483
GI50 of drug (UO-31 [17]): 1.26 µM
GI50 of drug (ACHN [18]): 0.0266 µM
GI50 of drug (769-P [19]): 2.89 µM
GI50 of drug (786-O [20]): 0.99 µM
GI50 of drug (SN12C [21]): 0.131 µM
GI50 of drug (TK-10 [22]): 1.35 µM
GI50 of drug (A498 [23]): 9.59 µM
GI50 of drug (CAKI-1 [24]): 0.0266 µM

SMILES: O=C1NC(=O)[C@@H](c2cn3c4c(cccc24)CCC3)[C@@H]1c1c[nH]c2ccccc12 [ARQ 197 (Tivantinib)] + Cc1nc(Nc2ncc(C(=O)Nc3c(C)cccc3Cl)s2)cc(N2CCN(CCO)CC2)n1 [dasatinib]
AUC of dose-response viability curve (UO-31 [1]): 2.97
AUC of dose-response viability curve (ACHN [2]): 1.73
AUC of dose-response viability curve (769-P [3]): 1.87
AUC of dose-response viability curve (786-O [4]): 1.42
AUC of dose-response viability curve (SN12C [5]): 2.01
AUC of dose-response viability curve (TK-10 [6]): 2.11
AUC of dose-response viability curve (A498 [7]): 2.42
AUC of dose-response viability curve (CAKI-1 [8]): 1.56
minimum viability across doses (UO-31 [9]): 0.03
minimum viability across doses (ACHN [10]): 0.147
minimum viability across doses (769-P [11]): 0.0843
minimum viability across doses (786-O [12]): 0.00404
minimum viability across doses (SN12C [13]): 0.181
minimum viability across doses (TK-10 [14]): 0.298
minimum viability across doses (A498 [15]): 0.133
minimum viability across doses (CAKI-1 [16]): 0.0929
GI50 of drug (UO-31 [17]): 1.98 µM
GI50 of drug (ACHN [18]): 0.367 µM
GI50 of drug (769-P [19]): 0.509 µM
GI50 of drug (786-O [20]): 0.191 µM
GI50 of drug (SN12C [21]): 1.87 µM
GI50 of drug (TK-10 [22]): 1.46 µM
GI50 of drug (A498 [23]): 0.975 µM
GI50 of drug (CAKI-1 [24]): 0.178 µM

SMILES: Cn1cc(C2=C(c3cn(C4CCN(Cc5ccccn5)CC4)c4ccccc34)C(=O)NC2=O)c2ccccc21 + Cc1nc(Nc2ncc(C(=O)Nc3c(C)cccc3Cl)s2)cc(N2CCN(CCO)CC2)n1 [dasatinib]
AUC of dose-response viability curve (UO-31 [1]): 3.35
AUC of dose-response viability curve (ACHN [2]): 2.28
AUC of dose-response viability curve (769-P [3]): 2.27
AUC of dose-response viability curve (786-O [4]): 2.71
AUC of dose-response viability curve (SN12C [5]): 2.38
AUC of dose-response viability curve (TK-10 [6]): 2.85
AUC of dose-response viability curve (A498 [7]): 3.04
AUC of dose-response viability curve (CAKI-1 [8]): 2.2
minimum viability across doses (UO-31 [9]): 0.341
minimum viability across doses (ACHN [10]): 0.566
minimum viability across doses (769-P [11]): 0.571
minimum viability across doses (786-O [12]): 0.636
minimum viability across doses (SN12C [13]): 0.62
minimum viability across doses (TK-10 [14]): 0.667
minimum viability across doses (A498 [15]): 0.817
minimum viability across doses (CAKI-1 [16]): 0.585
GI50 of drug (UO-31 [17]): 6.32 µM
GI50 of drug (ACHN [18]): > 10 µM
GI50 of drug (769-P [19]): > 10 µM
GI50 of drug (786-O [20]): > 10 µM
GI50 of drug (SN12C [21]): > 10 µM
GI50 of drug (TK-10 [22]): > 10 µM
GI50 of drug (A498 [23]): > 10 µM
GI50 of drug (CAKI-1 [24]): > 10 µM

SMILES: OCc1ccc(-c2ccc(-c3ccc(CO)s3)o2)s1 + Cc1nc(Nc2ncc(C(=O)Nc3c(C)cccc3Cl)s2)cc(N2CCN(CCO)CC2)n1 [dasatinib]
AUC of dose-response viability curve (UO-31 [1]): 3.23
AUC of dose-response viability curve (ACHN [2]): 1.2
AUC of dose-response viability curve (769-P [3]): 0.925
AUC of dose-response viability curve (786-O [4]): 1.04
AUC of dose-response viability curve (SN12C [5]): 1.8
AUC of dose-response viability curve (TK-10 [6]): 0.849
AUC of dose-response viability curve (A498 [7]): 2.69
AUC of dose-response viability curve (CAKI-1 [8]): 0.396
minimum viability across doses (UO-31 [9]): 0.0841
minimum viability across doses (ACHN [10]): 0.0471
minimum viability across doses (769-P [11]): 0.0624
minimum viability across doses (786-O [12]): 0.0022
minimum viability across doses (SN12C [13]): 0.0563
minimum viability across doses (TK-10 [14]): 0.0365
minimum viability across doses (A498 [15]): 0.292
minimum viability across doses (CAKI-1 [16]): 0.00172
GI50 of drug (UO-31 [17]): 0.917 µM
GI50 of drug (ACHN [18]): 0.0696 µM
GI50 of drug (769-P [19]): 0.00916 µM
GI50 of drug (786-O [20]): 0.018 µM
GI50 of drug (SN12C [21]): 0.219 µM
GI50 of drug (TK-10 [22]): 0.015 µM
GI50 of drug (A498 [23]): 1.7 µM
GI50 of drug (CAKI-1 [24]): 0.00449 µM

SMILES: Cc1[nH]c(/C=C2\C(=O)Nc3ccc(S(=O)(=O)Cc4c(Cl)cccc4Cl)cc32)c(C)c1C(=O)N1CCC[C@@H]1CN1CCCC1 + Cc1nc(Nc2ncc(C(=O)Nc3c(C)cccc3Cl)s2)cc(N2CCN(CCO)CC2)n1 [dasatinib]
AUC of dose-response viability curve (UO-31 [1]): 2.84
AUC of dose-response viability curve (ACHN [2]): 1.93
AUC of dose-response viability curve (769-P [3]): 2.14
AUC of dose-response viability curve (786-O [4]): 2.38
AUC of dose-response viability curve (SN12C [5]): 2.19
AUC of dose-response viability curve (TK-10 [6]): 2.73
AUC of dose-response viability curve (A498 [7]): 2.71
AUC of dose-response viability curve (CAKI-1 [8]): 2.04
minimum viability across doses (UO-31 [9]): 0.0078
minimum viability across doses (ACHN [10]): 0.00119
minimum viability across doses (769-P [11]): 0.00439
minimum viability across doses (786-O [12]): 0.0107
minimum viability across doses (SN12C [13]): 0.00449
minimum viability across doses (TK-10 [14]): 0.00273
minimum viability across doses (A498 [15]): 0.0111
minimum viability across doses (CAKI-1 [16]): 0.00431
GI50 of drug (UO-31 [17]): 3.1 µM
GI50 of drug (ACHN [18]): 1.06 µM
GI50 of drug (769-P [19]): 2.3 µM
GI50 of drug (786-O [20]): 3.3 µM
GI50 of drug (SN12C [21]): 4.24 µM
GI50 of drug (TK-10 [22]): 4.11 µM
GI50 of drug (A498 [23]): 2.1 µM
GI50 of drug (CAKI-1 [24]): 2.16 µM

The next lines start with results.

GI50 of drug (ACHN [18]): 0.287 µM
GI50 of drug (786-O [20]): 3.57 µM
SMILES: Nc1cccc(-c2cc3c(Oc4cccc(O)c4)ncnc3[nH]2)c1 [TWS119] + Cc1nc(Nc2ncc(C(=O)Nc3c(C)cccc3Cl)s2)cc(N2CCN(CCO)CC2)n1 [dasatinib]
AUC of dose-response viability curve (UO-31 [1]): 3.25
AUC of dose-response viability curve (ACHN [2]): 1.62
AUC of dose-response viability curve (769-P [3]): 1.93
AUC of dose-response viability curve (786-O [4]): 2.39
AUC of dose-response viability curve (SN12C [5]): 2.33
AUC of dose-response viability curve (TK-10 [6]): 2.34
AUC of dose-response viability curve (A498 [7]): 3.56
AUC of dose-response viability curve (CAKI-1 [8]): 2.11
minimum viability across doses (UO-31 [9]): 0.0374
minimum viability across doses (ACHN [10]): 0.126
minimum viability across doses (769-P [11]): 0.0643
minimum viability across doses (786-O [12]): 0.288
minimum viability across doses (SN12C [13]): 0.25
minimum viability across doses (TK-10 [14]): 0.0898
minimum viability across doses (A498 [15]): 0.653
minimum viability across doses (CAKI-1 [16]): 0.07
GI50 of drug (UO-31 [17]): 3.66 µM
GI50 of drug (769-P [19]): 0.798 µM
GI50 of drug (SN12C [21]): 3.6 µM
GI50 of drug (TK-10 [22]): 1.48 µM
GI50 of drug (A498 [23]): > 10 µM
GI50 of drug (CAKI-1 [24]): 1.74 µM

GI50 of drug (ACHN [18]): 1 µM
GI50 of drug (786-O [20]): 4 µM
SMILES: COc1ccc2c(Oc3ccc(NC(=O)c4c(C)n(CC(C)(C)O)n(-c5ccccc5)c4=O)nc3)ccnc2c1 [AMG458] + Cc1nc(Nc2ncc(C(=O)Nc3c(C)cccc3Cl)s2)cc(N2CCN(CCO)CC2)n1 [dasatinib]
AUC of dose-response viability curve (UO-31 [1]): 3.35
AUC of dose-response viability curve (ACHN [2]): 1.89
AUC of dose-response viability curve (769-P [3]): 2.27
AUC of dose-response viability curve (786-O [4]): 2.08
AUC of dose-response viability curve (SN12C [5]): 2.06
AUC of dose-response viability curve (TK-10 [6]): 2.39
AUC of dose-response viability curve (A498 [7]): 3.38
AUC of dose-response viability curve (CAKI-1 [8]): 1.92
minimum viability across doses (UO-31 [9]): 0.0124
minimum viability across doses (ACHN [10]): 0.152
minimum viability across doses (769-P [11]): 0.421
minimum viability across doses (786-O [12]): 0.195
minimum viability across doses (SN12C [13]): 0.396
minimum viability across doses (TK-10 [14]): 0.392
minimum viability across doses (A498 [15]): 0.771
minimum viability across doses (CAKI-1 [16]): 0.085
GI50 of drug (UO-31 [17]): 4.3 µM
GI50 of drug (769-P [19]): 3.38 µM
GI50 of drug (SN12C [21]): 1.73 µM
GI50 of drug (TK-10 [22]): 5.3 µM
GI50 of drug (A498 [23]): > 10 µM
GI50 of drug (CAKI-1 [24]): 0.893 µM
